According to PubChem BioAssay (NCI):
Values joined by “and” are separate entries in the source; they are usually repeats but may differ in a detail not shown here. Identical values can stand only once.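 Following 48 hours of exposure in 96-well plates, responses at five concentrations were used to interpolate endpoints linearly. At the GI50, growth is halved. TGI: concentration producing complete growth inhibition.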

What was measured:
Test in all cases: growth of human tumour cells (NCI), 48 h
[1] = system: XF 498 CNS
[2] = system: SNB-78 CNS
[3] = system: RXF 393 renal
[4] = system: CCRF-CEM leukemia
[5] = system: SK-OV-3 ovarian
[6] = system: OVCAR-5 ovarian
[7] = system: NCI-H23 lung
[8] = system: HT29 colon
[9] = system: HS 578T breast
[10] = system: NCI/ADR-RES ovarian

Structure (SMILES) | TGI [1] | TGI [2] | TGI [3] | TGI [4] | TGI [5] | TGI [6] | TGI [7] | TGI [8] | GI50 [4] | TGI [9] | TGI [10] | GI50 [8] | GI50 [9] | GI50 [1] | GI50 [2] | GI50 [3] | GI50 [5] | GI50 [7]
Cc1cc(C)nc(NS(=O)(=O)c2ccc(Nc3c4ccc(Cl)cc4nc4c(C(=O)NCCN(C)C)cccc34)cc2)n1 | > 100 µM | > 100 µM | > 100 µM | > 100 µM | > 100 µM | > 100 µM | > 100 µM | > 100 µM | – | – | – | – | – | – | – | – | – | –
CC(C)NC(=O)CCN(C(=O)O)S(=O)(=O)c1ccc(NC(=O)c2ccccc2)cc1 | > 100 µM | > 100 µM | > 100 µM | > 63.4 µM | > 100 µM | > 100 µM | > 100 µM | > 100 µM | – | – | – | – | – | – | – | – | – | –
COc1cc2c(cc1OC)C1Cc3cc(OC)c(OC)cc3C(C2)N1C | > 100 µM | > 100 µM | > 75 µM | > 100 µM | > 75 µM | > 100 µM | > 100 µM | > 100 µM | 27.4 µM and > 100 µM | > 75 µM | > 75 µM | 23.5 µM and 54 µM | – | – | – | – | – | –
CC(=O)OC12COC1CC(O)C1(C)C(=O)C(O)C3=C(C)C(O)CC(O)(C(OC(=O)c4ccccc4)C21)C3(C)C (centres undefined) | > 100 µM | > 100 µM | > 100 µM | > 100 µM | > 100 µM | > 42.2 µM | > 100 µM | > 44.8 µM | – | 6.15 µM | > 100 µM | – | 1360 nM | – | – | – | – | –
COc1ccc(C2C(C)C(=O)C(C)C(c3ccc(OC)cc3)N2N=O)cc1 (centres undefined) | 69.7 µM and 160 µM and > 460 µM | > 78.2 µM and 750 µM and > 902 µM | 64.8 µM and 216 µM and 122 µM | > 1000 µM | > 82.5 µM and 626 µM and 980 µM | > 977 µM | > 750 µM and 713 µM | > 1000 µM | – | 890 µM | > 1000 µM | – | – | 27 µM and 39.1 µM | > 46.2 µM and 96.1 µM | 20.7 µM and 67.6 µM | > 47.5 µM and 220 µM | > 750 µM
